Patent US11766649B2, “Coating method” (ASTON PARTICLE TECHNOLOGIES LIMITED, priority 2017, dated 2023)

Key:
Type in all cases: physicochemical
[1] = USP II basket dissolution of piroxicam/PVP powders in 0.1N hydrochloric acid; details: 20 mg dose, 37° C., 50 rpm, end of the 4 h interval, FIG. 8
Protocol: (§1) The dissolution rate was analysed using standard USP II dissolution apparatus using the basket assembly dissolution vessels. Standard 20 mg dose powders were investigated to mimic a patient dose, with dissolution conditions maintained at 37° C. and the basket apparatus rotated at 50 rpm in 0.1N hydrochloric acid. Powders were placed in the basket and submerged in to the dissolution apparatus and ran over 4 h. Samples were taken at predetermined time intervals, with each sample volume replaced with the same amount of fresh dissolution media to maintain sink conditions. The samples were filtered appropriately and analysed for drug content using HPLC apparatus at each of the time points. All results were taken in triplicate, and are represented in FIG. 8.

[2] = USP II basket dissolution of flucloxacillin sodium/polymer powders in pH 6.8 phosphate buffer; details: 250 mg dose, 37° C., 50 rpm, 60 mins, FIG. 13
Protocol: as §1, with “250” for “20”, “pH 6.8 phosphate buffer.” for “0.1N hydrochloric acid.”, “60 mins.” for “4 h.”, “and are represented in FIG. 8.” left out

[3] = USP II basket dissolution of carbamazepine/PVP powders in distilled water; details: 200 mg dose, 37° C., 50 rpm, over the 4 h time period, FIG. 7
Protocol: as §1, with “200” for “20”, “distilled water.” for “0.1N hydrochloric acid.”, “7.” for “8.”

[4] = Dissolution of carbamazepine dry coated with micronized sodium lauryl sulphate (FIG. 10)
[5] = USP II basket dissolution of phenytoin/PVP powders in distilled water; details: 200 mg dose, 37° C., 50 rpm, 4 h, FIG. 9
Protocol: as §1, with “200” for “20”, “distilled water.” for “0.1N hydrochloric acid.”, “9.” for “8.”

CN1C(C(=O)Nc2ccccn2)=C(O)c2ccccc2S1(=O)=O [control piroxicam, piroxicam] showed a drug release [1] of 29.7%.
For Cc1onc(-c2c(F)cccc2Cl)c1C(=O)N[C@@H]1C(=O)N2[C@@H]1SC(C)(C)[C@@H]2C(=O)O [flucloxacillin sodium], the “release of flucloxacillin sodium” value [2] was “full release within a minute”.
For NC(=O)N1c2ccccc2C=Cc2ccccc21 [micronized carbamazepine, carbamazepine], the drug release [3] was “very poor release”.
For NC(=O)N1c2ccccc2C=Cc2ccccc21 [off the shelf carbamazepine (CBZ), carbamazepine], the drug release [4] was “around 38%”.
Work on O=C1NC(=O)C(c2ccccc2)(c2ccccc2)N1 [phenytoin alone, phenytoin] yielded a release [5] of 4.7%.
